Assay results: patent publication US5610154A, “Bicyclic carboxamides” (John Wyeth & Brother, Ltd., priority 1994, dated 1997)

Biological target: T1, 5-HT1A receptor (Rattus norvegicus, UniProt P19327)
T1 construct: rat hippocampal membrane homogenate; from tissue; host or cells: rat hippocampus, membrane homogenate
T1 sequence (P19327 1-422): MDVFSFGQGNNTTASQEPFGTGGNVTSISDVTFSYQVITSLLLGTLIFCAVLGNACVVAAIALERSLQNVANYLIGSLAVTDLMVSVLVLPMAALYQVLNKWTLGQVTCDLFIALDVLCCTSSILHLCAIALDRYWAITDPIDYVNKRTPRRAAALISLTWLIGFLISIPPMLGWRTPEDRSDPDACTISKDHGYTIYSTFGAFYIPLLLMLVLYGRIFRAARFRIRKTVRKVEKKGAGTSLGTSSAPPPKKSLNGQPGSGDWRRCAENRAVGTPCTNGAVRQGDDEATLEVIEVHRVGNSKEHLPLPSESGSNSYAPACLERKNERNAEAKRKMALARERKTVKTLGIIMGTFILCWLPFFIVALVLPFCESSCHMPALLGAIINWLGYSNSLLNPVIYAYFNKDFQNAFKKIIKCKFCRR
Assay: 5-HT1A receptor binding activity in rat hippocampal membrane homogenate (method of B. S. Alexander and M. D. Wood)
Method: The compounds of the invention are tested for 5-HT1A receptor binding activity in rat hippocampal membrane homogenate by the method of B. S. Alexander and M. D. Wood, J. Pharm. Pharmacol., 1988, 40, 888-891.

Compound | IC50
COc1ccccc1N1CCN(CCC(C(=O)N2C3CCCC2CC3)c2ccccc2)CC1 (centres unmarked) [Example 1, 1-(8-Aza-bicyclo[3.2.1]oct-8-yl)-4-[4-(2-methoxy-phenyl)-piperazin-1-yl]-2-phenyl-butan-1-one] | 3.3 nM
COc1ccc(F)cc1N1CCN(CCC(C(=O)N2C3CCCC2CC3)c2ccccc2)CC1 (centres unmarked) [Example 2, 1-(8-Aza-bicyclo[3.2.1]oct-8-yl)-4-[4-(5-fluoro-2-methoxy-phenyl)-piperazin-1-yl]-2-phenyl-butan-1-one] | 1.48 nM
O=C(C(CCN1CCN(c2cccc3[nH]ccc23)CC1)c1ccccc1)N1C2CCCC1CC2 (centres unmarked) [Example 5, 1-(8-Aza-bicyclo[3.2.1]oct-8-yl)-4-[4-(1H-indol-4-yl)-piperazin-1-yl]-2-phenyl-butan-1-one] | 3.73 nM
O=C(C(CCN1CCN(c2ccccn2)CC1)c1ccccc1)N1C2CCCC1CC2 (centres unmarked) [Example 8, 1-(8-Aza-bicyclo[3.2.1]oct-8-yl)-2-phenyl-4-[4-(pyridin-2-yl)-piperazin-1-yl]-butan-1-one] | 3.5 nM
O=C(C(CCN1CCN(c2ncccc2C(F)(F)F)CC1)c1ccccc1)N1C2CCCC1CC2 (centres unmarked) [Example 10] | 17.9 nM
O=C(C(CCN1CCN(c2cccc3[nH]ccc23)CC1)c1ccccc1)N1CC2CCC(CC2)C1 (centres unmarked) [Example 14, 1-(3-Aza-bicyclo[3.2.2]non-3-yl)-4-[4-(1H-indol-4-yl)-piperazin-1-yl]-2-phenylbutan-1-one] | 1.96 nM
COc1ccccc1N1CCN(CCC(C(=O)N2CC3CCC(CC3)C2)c2ccccc2)CC1 (centres unmarked) [Example 15] | 0.58 nM
COc1ccccc1N1CCN(CCC(C(=O)N2CC3CC=CCC3C2)c2ccccc2)CC1 (centres unmarked) [Example 16, 1-(1,3,3a,4,7,7a-Hexahydroisoindol-2-yl)-4-[4-(2-methoxyphenyl)piperazin-1-yl]-2-phenylbutan-1-one] | 4.46 nM
